The text below walks through data of US7994209B2, “3-phenoxymethylpyrrolidine compounds” (Theravance, Inc., priority 2009, dated 2011).

Assay [1] concerns the target T1, hSERT (Homo sapiens, UniProt P31645). Put plainly: fluorescence-based serotonin reuptake inhibition assay (Tsuruda et al. 2010; data indicated by an asterisk). The assay is classed as cell-based. Also noted: expressed in transfected cells; host or cells: HEK-293. The note with it: fluorescence-based assay (values with asterisk); for IC50: read-out: SERT pIC50 (converted).

For assay [2], the target named is T2, hNET (Homo sapiens, UniProt P23975). Put plainly: fluorescence-based norepinephrine reuptake inhibition assay (Tsuruda et al. 2010; data indicated by an asterisk). The assay is classed as cell-based. Also on record: expressed in transfected cells; host or cells: HEK-293. The conditions noted are these: norepinephrine reuptake inhibition, fluorescence-based assay (values with asterisk); for IC50: read-out: NET pIC50 (converted).
T2 sequence (P23975 whole entry): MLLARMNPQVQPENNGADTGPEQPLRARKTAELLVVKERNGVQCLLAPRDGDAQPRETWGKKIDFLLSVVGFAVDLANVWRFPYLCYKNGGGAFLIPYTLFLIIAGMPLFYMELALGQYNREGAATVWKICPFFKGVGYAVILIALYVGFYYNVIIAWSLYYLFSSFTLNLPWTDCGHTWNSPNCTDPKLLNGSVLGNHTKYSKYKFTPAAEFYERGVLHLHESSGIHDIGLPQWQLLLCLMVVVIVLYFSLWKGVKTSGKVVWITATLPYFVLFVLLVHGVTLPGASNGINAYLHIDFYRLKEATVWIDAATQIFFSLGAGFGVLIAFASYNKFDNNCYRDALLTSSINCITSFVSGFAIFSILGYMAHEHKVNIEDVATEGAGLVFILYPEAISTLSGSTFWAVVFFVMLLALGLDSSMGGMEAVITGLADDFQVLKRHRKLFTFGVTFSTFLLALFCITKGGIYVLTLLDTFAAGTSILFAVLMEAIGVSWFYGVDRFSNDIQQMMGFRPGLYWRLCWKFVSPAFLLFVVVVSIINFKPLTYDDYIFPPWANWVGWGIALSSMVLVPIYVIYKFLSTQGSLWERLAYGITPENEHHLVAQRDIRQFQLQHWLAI

In assay [3] the target is T1, hSERT. Nature of the assay: hSERT membrane radioligand binding assay (3H-citalopram), Assay 1. The conditions noted are these: hSERT HEK-293 membranes, 1.0 nM 3H-citalopram, values given as lower bounds; for Ki: SERT pKi.
The target in assay [4] is T2, hNET. Put plainly: hNET membrane radioligand binding assay (3H-nisoxetine), Assay 1.

Marks after values point to notes of the source that are not given here.

T1 sequence (P31645 whole entry): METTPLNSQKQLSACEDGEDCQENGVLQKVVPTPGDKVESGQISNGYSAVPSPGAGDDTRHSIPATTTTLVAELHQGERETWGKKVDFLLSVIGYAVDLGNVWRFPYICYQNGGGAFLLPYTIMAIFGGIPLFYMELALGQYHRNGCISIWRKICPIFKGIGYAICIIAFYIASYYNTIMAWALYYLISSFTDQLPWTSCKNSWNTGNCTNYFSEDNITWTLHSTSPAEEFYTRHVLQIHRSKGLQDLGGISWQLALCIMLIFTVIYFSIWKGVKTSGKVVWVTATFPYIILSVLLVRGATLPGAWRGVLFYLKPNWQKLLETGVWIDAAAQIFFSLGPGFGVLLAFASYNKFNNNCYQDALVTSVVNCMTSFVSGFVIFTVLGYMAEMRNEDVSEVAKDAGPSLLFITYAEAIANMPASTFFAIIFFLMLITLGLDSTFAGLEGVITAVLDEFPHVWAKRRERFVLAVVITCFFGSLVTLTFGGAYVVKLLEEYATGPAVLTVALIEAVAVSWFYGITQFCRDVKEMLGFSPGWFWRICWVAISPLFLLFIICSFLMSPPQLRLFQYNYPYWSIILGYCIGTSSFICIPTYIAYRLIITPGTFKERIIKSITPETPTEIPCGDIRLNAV

What is called Ki is the equilibrium dissociation constant of an inhibitor or competing ligand from its target. Lower therefore signals a stronger hold on the target. Take `CC(C)[C@H](Oc1cccc(Cl)c1C(F)(F)F)[C@H]1CCNC1` [Example 6-49, (S)-3-[(S)-1-(3-Chloro-2-trifluoromethylphenoxy)-2-methylpropyl]pyrrolidine]: the IC50 is at most 100 nM at hSERT [1] and at most 10 nM at hNET [2]. Moreover, the Ki on hSERT [3] and at hNET [4] was at most 10 nM each time.

For `Cc1ccc(F)c(O[C@@H](C2CC2)[C@H]2CCNC2)c1Cl` [Example 16-62, (S)-3-[(S)-(2-Chloro-6-fluoro-3-methylphenoxy)cyclopropylmethyl]pyrrolidine], the IC50 on hSERT [1] was at most 100 nM; on hNET [2], at most 10 nM. Also, the inhibitory constant (Ki) on hSERT [3] and at hNET [4] was at most 10 nM in each case.

“(S)-3-[(R)-Cyclopropyl-(2-methyl-3-vinylphenoxy)methyl]pyrrolidine [Example 23-1]”: the “SERT pIC50” value at hSERT [1] is reported as “≧8.0*”. At hNET [2], the “NET pIC50” value is on record as “≧8.0*”. Moreover, the “SERT pKi” value on hSERT [3] is “≧8.0”. The “NET pKi” value on hNET [4] (hNET HEK-293 membranes, 1.0 nM 3H-nisoxetine, values given as lower bounds) was “≧8.0”.

On to `Clc1ccc(O[C@@H](C2CC2)[C@H]2CCNC2)cc1Cl` [Example 16-87, (S)-3-[(S)cyclopropyl-(3,4-dichlorophenoxy)methyl]pyrrolidine], for which the IC50 on hSERT [1] and on hNET [2] was at most 10 nM each time. Further, the inhibitory constant (Ki) at hSERT [3] and at hNET [4] was at most 10 nM in each case.

For the compound `CCOc1cc(Cl)ccc1O[C@H](C1CC1)[C@H]1CCNC1` [Example 16-42, (S)-3-[(R)-(4-Chloro-2-ethoxyphenoxy)cyclopropylmethyl]pyrrolidine], the IC50 on hSERT [1] and on hNET [2] was at most 100 nM each time. Moreover, the Ki is at most 10 nM on hSERT [3] and at most 100 nM on hNET [4].

Turning to `Clc1ccccc1O[C@H](C1CC1)[C@H]1CCNC1` [Example 16-2, (S)-3-[(R)-(2-Chlorophenoxy)cyclopropylmethyl]pyrrolidine], the IC50 on hSERT [1] is at most 100 nM; at hNET [2], at most 10 nM. In addition, the Ki at hSERT [3] and at hNET [4] was at most 10 nM each time.

In the case of `Cc1cc(O[C@@H](C2CC2)[C@H]2CCNC2)c(Cl)cc1Cl` [Example 16-72, (S)-3-[(S)cyclopropyl-(2,4-dichloro-5-methylphenoxy)methyl]pyrrolidine], the IC50 at hSERT [1] is at most 10 nM; on hNET [2], at most 100 nM. The values for the inhibitory constant (Ki) at hSERT [3] and on hNET [4] were at most 10 nM and at most 100 nM, respectively.

Regarding `COc1ccc(F)c(O[C@@H](C2CC2)[C@H]2CCNC2)c1Cl` [Example 16-64, (S)-3-[(S)-(2-Chloro-6-fluoro-3-methoxyphenoxy)cyclopropylmethyl]pyrrolidine], the IC50 at hSERT [1] and at hNET [2] was at most 10 nM throughout. Moreover, the inhibitory constant (Ki) at hSERT [3] and on hNET [4] was at most 10 nM in each case.

As for `Clc1cccc(O[C@@H](C2CC2)[C@H]2CCNC2)c1` [Example 16-84, (S)-3-[(S)-(3-Chlorophenoxy)cyclopropylmethyl]pyrrolidine], the IC50 is at most 100 nM on hSERT [1] and at most 10 nM on hNET [2]. The Ki on hSERT [3] and at hNET [4] was at most 10 nM in each case.

As for `Cc1cc(O[C@H](C2CC2)[C@H]2CCNC2)ccc1Cl` [Example 16-95, (S)-3-[(R)-(4-Chloro-3-methylphenoxy)cyclopropylmethyl]pyrrolidine], the IC50 is at most 10 nM at hSERT [1] and at most 100 nM at hNET [2]. Besides, the Ki was at most 10 nM on hSERT [3] and at most 100 nM at hNET [4].

As to `CC(C)C[C@@H](Oc1c(Cl)cccc1Cl)[C@H]1CCNC1` [Example 10-55, (S)-3-[(R)-1-(2,6-Dichlorophenoxy)-3-methylbutyl]pyrrolidine], the IC50 on hSERT [1] is at most 100 nM; on hNET [2], at most 10 nM. Besides, the Ki at hSERT [3] and on hNET [4] was at most 10 nM throughout.

Take `CC(C)C[C@H](Oc1cccc(F)c1Cl)[C@@H]1CCNC1` [Example 10-28, (R)-3-[(S)-1-(2-Chloro-3-fluorophenoxy)-3-methylbutyl]pyrrolidine]: the IC50 at hSERT [1] and on hNET [2] was at most 10 nM in each case. Besides, the inhibition constant Ki at hSERT [3] and on hNET [4] was at most 10 nM throughout.

Take `Cc1ccc(O[C@@H](C2CC2)[C@H]2CCNC2)c(F)c1F` [Example 16-50, (S)-3-[(S)cyclopropyl-(2,3-difluoro-4-methylphenoxy)methyl]pyrrolidine]: the IC50 at hSERT [1] and at hNET [2] was at most 10 nM each time. In addition, the inhibition constant Ki at hSERT [3] and at hNET [4] was at most 10 nM in each case.

`Fc1cc(Cl)cc(F)c1O[C@H](C1CC1)[C@H]1CCNC1` [Example 16-80, (S)-3-[(R)-(4-Chloro-2,6-difluorophenoxy)cyclopropylmethyl]pyrrolidine]: the IC50 at hSERT [1] and on hNET [2] was at most 10 nM each time. Moreover, the Ki at hSERT [3] and at hNET [4] was at most 10 nM throughout.

With `CCC[C@@H](Oc1cc(Cl)cc(Cl)c1)[C@@H]1CCNC1` [Example 4-9, (R)-3-[(R)-1-(3,5-Dichlorophenoxy)butyl]pyrrolidine], the IC50 at hSERT [1] and at hNET [2] was at most 10 nM in each case. In addition, the inhibition constant Ki at hSERT [3] and on hNET [4] was at most 10 nM throughout.

In the case of `COc1c(O[C@H](C2CC2)[C@H]2CCNC2)ccc(Cl)c1Cl` [Example 16-56, (S)-3-[(R)cyclopropyl-(3,4-dichloro-2-methoxyphenoxy)methyl]pyrrolidine], the IC50 on hSERT [1] was at most 10 nM; at hNET [2] it was at most 316 nM. In addition, the inhibition constant (Ki) on hSERT [3] was at most 10 nM; on hNET [4], at most 316 nM.

Take `Clc1ccccc1O[C@@H](C1CC1)[C@H]1CCNC1` [Example 16-1, (S)-3-[(S)-(2-Chlorophenoxy)cyclopropylmethyl]pyrrolidine]: the values for the IC50 on hSERT [1] and on hNET [2] were at most 100 nM and at most 10 nM, respectively. Besides, the Ki on hSERT [3] and on hNET [4] was at most 10 nM throughout.

Take `COc1cc(Cl)c(F)cc1O[C@@H](C1CC1)[C@H]1CCNC1` [Example 16-74, (S)-3-[(S)-(4-Chloro-5-fluoro-2-methoxyphenoxy)cyclopropylmethyl]pyrrolidine]: the IC50 at hSERT [1] and on hNET [2] was at most 10 nM throughout. Moreover, the Ki on hSERT [3] and at hNET [4] was at most 10 nM each time.

With `Fc1ccc(Cl)c(Cl)c1O[C@H](C1CC1)[C@H]1CCNC1` [Example 16-60, (S)-3-[(R)cyclopropyl-(2,3-dichloro-6-fluorophenoxy)methyl]pyrrolidine], the IC50 on hSERT [1] and at hNET [2] was at most 10 nM in each case. The Ki on hSERT [3] and on hNET [4] was at most 10 nM in each case.

As for `CC(C)[C@H](Oc1ccc(Cl)cc1C(F)(F)F)[C@H]1CCNC1` [Example 6-51, (S)-3-[(S)-1-(4-Chloro-2-trifluoromethylphenoxy)-2-methylpropyl]pyrrolidine], the IC50 at hSERT [1] was at most 100 nM; at hNET [2] it was at most 10 nM. For the same compound, the Ki on hSERT [3] and on hNET [4] was at most 10 nM each time.

Turning to `CC(C)C[C@H](Oc1cccc(Cl)c1Cl)[C@H]1CCNC1` [Example 9, (S)-3-[(S)-1-(2,3-Dichlorophenoxy)-3-methylbutyl]pyrrolidine], the IC50 at hSERT [1] and on hNET [2] was at most 10 nM each time. Further, the Ki at hSERT [3] and on hNET [4] was at most 10 nM in each case.

For `Cc1ccc(F)c(O[C@H](C2CC2)[C@H]2CCNC2)c1Cl` [Example 16-63, (S)-3-[(R)-(2-Chloro-6-fluoro-3-methylphenoxy)cyclopropylmethyl]pyrrolidine], the IC50 was at most 100 nM on hSERT [1] and at most 10 nM at hNET [2]. Besides, the Ki at hSERT [3] and at hNET [4] was at most 10 nM in each case.

Consider `Fc1ccc(Cl)c(F)c1O[C@@H](C1CC1)[C@H]1CCNC1` [Example 16-66, (S)-3-[(S)-(3-Chloro-2,6-difluorophenoxy)cyclopropylmethyl]pyrrolidine], for which the IC50 on hSERT [1] was at most 100 nM; at hNET [2] it was at most 10 nM. Further, the inhibitory constant (Ki) at hSERT [3] and at hNET [4] was at most 10 nM each time.

As to `Fc1ccc(O[C@@H](C2CC2)[C@H]2CCNC2)c(F)c1Cl` [Example 16-53, (S)-3-[(S)-(3-Chloro-2,4-difluorophenoxy)cyclopropylmethyl]pyrrolidine], the IC50 on hSERT [1] and at hNET [2] was at most 10 nM in each case. The Ki at hSERT [3] and on hNET [4] was at most 10 nM in each case.

`Cc1c(Cl)cccc1O[C@@H](CC(C)C)[C@H]1CCNC1` [Example 10-33, (S)-3-[(S)-1-(3-Chloro-2-methylphenoxy)-3-methylbutyl]pyrrolidine]: the IC50 at hSERT [1] and on hNET [2] was at most 10 nM throughout. The Ki at hSERT [3] and at hNET [4] was at most 10 nM throughout.

With `CCC[C@@H](Oc1cccc(Cl)c1C(F)(F)F)[C@@H]1CCNC1` [Example 4-71, (R)-3-[(R)-1-(3-Chloro-2-trifluoromethylphenoxy)butyl]pyrrolidine], the IC50 at hSERT [1] and at hNET [2] was at most 100 nM each time. Moreover, the Ki at hSERT [3] and on hNET [4] was at most 10 nM throughout.

Take `Cc1cc(O[C@@H](C2CC2)[C@H]2CCNC2)ccc1Cl` [Example 16-94, (S)-3-[(S)-(4-Chloro-3-methylphenoxy)cyclopropylmethyl]pyrrolidine]: the IC50 at hSERT [1] and at hNET [2] was at most 10 nM throughout. Further, the Ki at hSERT [3] and on hNET [4] was at most 10 nM throughout.

For the compound `Fc1ccc(O[C@H](C2CC2)[C@H]2CCNC2)c(F)c1F` [Example 16-47, (S)-3-[(R)cyclopropyl-(2,3,4-trifluorophenoxy)methyl]pyrrolidine], the IC50 at hSERT [1] and on hNET [2] was at most 10 nM in each case. Moreover, the inhibitory constant (Ki) on hSERT [3] was at most 10 nM; at hNET [4] it was at most 100 nM.
